Assay results from patent US20210290644A1, “COMPOUNDS AND METHODS FOR TREATING FUNGAL INFECTIONS” (Amplyx Pharmaceuticals, Inc., priority 2018, published 2021).
Where “and” joins values, the source holds several entries; their conditions need not be identical. Equal values may be shown once. Entries after “also recorded” stand apart in the source; their conditions may differ.

Legend:
[1] = human, in vivo
From the text: (§1) This was a Phase 1, first-in-human, randomized, double-blind, placebo-controlled single ascending dose (SAD) and multiple ascending dose (MAD) escalation study of 120 healthy male and female subjects. The objectives of the study were to evaluate the safety, tolerability, and pharmacokinetics of single and multiple doses of Compound 1 administered by intravenous (IV) infusion.
(§2) In the single ascending dose (SAD) phase, Cohorts 1 to 6 and 11A to 11D received single doses. For Cohorts 11A to 11D, the infusion time varied from 0.5 to 3 hours to evaluate the relationship between C., and tolerability. In the multiple ascending dose (MAD) phase, Cohorts 7 to 10 received multiple doses over 14 days, and Cohort 12 examined the feasibility of a loading dose regimen.
(§3) Blood samples for the determination of Compound 1 and Compound 1A plasma concentrations were collected before and at appropriate times during all single- and multiple-dose administrations of Compound 1. For SAD Cohorts 1 to 6, urine samples for the determination of Compound 1A were collected through 48 hrs after dosing.
(§4) Eighty (80) subjects were enrolled into SAD Cohorts 1 to 6 and 11A to 11D. Within each cohort, six subjects were randomized to Compound 1 and two subjects to placebo. All 60 subjects randomized to Compound 1 completed dosing. Fifty-nine (59) subjects completed the study.
(§5) Forty (40) subjects were enrolled into MAD Cohorts 7 to 10 and Loading Dose Cohort 12. Within each cohort, six subjects were randomized to Compound 1 and two subjects to placebo.
(§6) The PK analysis population therefore consisted of 60 subjects in the SAD phase and 28 subjects in the MAD phase.

clinical [2] = settings: both, human, iv; for clearance / half-life: in vivo
From the text: as §1, §2, §3, §4, §5, §6

clinical [3] = settings: human, plasma, po
From the text: In the single ascending dose (SAD) phase, subjects in Cohort 1a received a single IV dose in Period A and then rising single oral doses in Periods B to D. Subjects in Cohort 1b received a single oral dose under fed and fasted conditions in Periods E and F. Subjects in Cohorts 2 and 3 received once-daily oral doses for 14 days, as did subjects in Cohort 4 as part of an in vivo screen for drug-drug interaction (DDI) potential.
For SAD Cohorts 1a and 1b, urine samples for the determination of Compound 1A were collected through 48 hrs after dosing.
Forty-six (46) subjects were enrolled into the study, 8 in Cohort 1a, 10 in Cohort 1b, and 8 each in Cohorts 2 and 3.

clinical [4] = settings: human, plasma, po, 400 mg
From the text: (§7) Study #2 of Compound 1 was a Phase 1, double-blind, placebo-controlled, randomized study in healthy volunteers that consisted of a series of single and multiple dose treatments. In the single ascending dose (SAD) phase, subjects in Cohort 1a received a single IV dose in Period A and then rising single oral doses in Periods B to D. Subjects in Cohort 1b received a single oral dose under fed and fasted conditions in Periods E and F. Subjects in Cohorts 2 and 3 received once-daily oral doses for 14 days, as did subjects in Cohort 4 as part of an in vivo screen for drug-drug interaction (DDI) potential.
(§8) Blood samples for the determination of Compound 1 and Compound 1A plasma concentrations were collected before and at appropriate times during all single and multiple dose administrations of Compound 1. For SAD Cohorts 1a and 1b, urine samples for the determination of Compound 1A were collected through 48 hrs after dosing.

[5] = Study #2 Phase 1: effect of food (fed vs fasted) on pharmacokinetics of Compound 1A after 400 mg oral Compound 1; settings: for F: 400 mg oral, ratio of geometric mean AUC(inf) to IV treatment after correction for dose;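 on all read-outs here: cohort 1b subjects took one oral dose in both fed and fasted states, across two separate periods (E, F) within the single ascending dose phase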
From the text: as §7, §8

[6] = Study #1 Phase 1: plasma and urine pharmacokinetics of Compound 1 and Compound 1A after IV infusion of Compound 1 (SAD, MAD, loading regimen); settings: both, human
From the text: as §1, §2, §3, §4, §5, §6

[7] = Cohort 1B, 400 mg oral Compound 1, fed vs fasted
[8] = plasma, 30 mg, Cohort 2: Compound 1 30 mg/3 hr IV, single dose, geometric mean [geometric %CV]

Nc1ncccc1-c1cc(Cc2ccc(COc3ccccn3)cc2)no1 [Compound 1A]
slope of log-log AUC0-24 vs. dose (power model parameter b) ([1]; both): 1.015±0.043
slope of log-log steady-state Cmax vs. dose (power model parameter b) ([1]; both): 1.039±0.031
CL ([1]; both, iv): 0.387 mL/min/kg
median accumulation, ratio of AUC0-24 on Day 14 to Day 1 ([1]; both, iv): 3.27
median accumulation, ratio of Cmax on Day 14 to Day 1 ([1]; both, iv): 1.96
slope of log-log AUC(inf) versus dose (power model parameter b) ([1]; both, iv): 1.01±0.020
slope of log-log Cmax versus dose (power model parameter b) ([1]; both, iv): 0.929±0.021
time at which steady-state is reached ([1]; both, iv): between Day 7 and Day 14
target plasma exposures (AUC0-24) for clinical efficacy against Candida spp., Aspergillus spp., rare molds ([1]; iv): exceeded
clearance (clinical [2]): 25.7 mL/min and 0.348 mL/min/kg
half-life (clinical [2]): 74.9 h
clearance (clinical [2]; CL): 31.5 mL/min and 0.45 mL/min/kg
half-life (clinical [2]; geometric mean T1/2, range across treatments): 39.2 to 74.9 h
half-life (clinical [2]; geometric mean t1/2, range across cohorts): 48 to 69 h
half-life (clinical [2]; t½): 39.2 h
AUC(0-t) (clinical [2]; plasma, 150 mg): 51900 ng·h/mL
Cmax (clinical [2]; plasma, 150 mg): 3420 ng/mL
Vd (clinical [2]; plasma, 150 mg): 174 L and 2.17 L/kg
AUC(0-inf) (clinical [2]; plasma, 350 mg): 173000 ng·h/mL
Cmax (clinical [2]; plasma, 350 mg): 4330 ng/mL
Vd (clinical [2]; plasma, 350 mg): 167 L and 2.26 L/kg
AUC(0-inf) (clinical [3]; 100 mg): 39600 ng·h/mL
CL/F (clinical [3]; 100 mg): 0.417 mL/min/kg
Cmax (clinical [3]; 100 mg): 1300 ng/mL
Vd/F (clinical [3]; 100 mg): 138 L and 1.78 L/kg
half-life (clinical [3]; 100 mg): 49.5 h
AUC(0-inf) (clinical [3]; 400 mg): 177000 ng·h/mL
CL/F (clinical [3]; 400 mg): 0.418 mL/min/kg
Cmax (clinical [3]; 400 mg): 4250 ng/mL
Vd/F (clinical [3]; 400 mg): 161 L and 2.35 L/kg
half-life (clinical [3]; 400 mg): 64.7 h
AUC(0-inf) (clinical [4]): 177000 ng·h/mL
CL/F (clinical [4]): 0.418 mL/min/kg
Cmax (clinical [4]): 4250 ng/mL
Vd/F (clinical [4]): 161 L and 2.35 L/kg
half-life (clinical [4]): 64.7 h
effect of high fat/high calorie meal on bioavailability/exposure ([5]; 400 mg oral Compound 1): no significant effect; also recorded: no impact of food
least squares geometric mean ratios (LSGMR) fed/fasted for Cmax and both AUCs ([5]; 400 mg oral Compound 1, high fat/high calorie meal): ~106%
Geometric Mean Ratio, AUC(0-t) [5, 7]: 106.00%
Geometric Mean Ratio, AUC(inf) [5, 7]: 106.15%
Geometric Mean Ratio, Cmax [5, 7]: 106.29%
F ([5]; Cohort 1B, Fasted): 101.2%
F ([5]; Cohort 1B, Fed): 107.4%
AUC(0-t) ([5]; human, plasma, po, 400 mg, AUC(0-24), Cohort 1B, 400 mg oral Compound 1, Fed, geometric mean): 43600 ng·h/mL
AUC(0-t) ([5]; human, plasma, po, 400 mg, AUC(0-t), Cohort 1B, 400 mg oral Compound 1, Fed, geometric mean): 180000 ng·h/mL
AUC(0-inf) ([5]; human, plasma, po, 400 mg, AUC(inf), Cohort 1B, 400 mg oral Compound 1, Fed, geometric mean): 188000 ng·h/mL
CL/F ([5]; human, plasma, po, 400 mg, CL/F, Cohort 1B, 400 mg oral Compound 1, Fed, geometric mean): 0.395 mL/min/kg
Cmax ([5]; human, plasma, po, 400 mg, Cmax, Cohort 1B, 400 mg oral Compound 1, Fed, geometric mean): 4520 ng/mL
Tmax ([5]; human, plasma, po, 400 mg, Tmax, Cohort 1B, 400 mg oral Compound 1, Fasted, median): 2.5 h
Tmax ([5]; human, plasma, po, 400 mg, Tmax, Cohort 1B, 400 mg oral Compound 1, Fed, median): 3.75 h
Vd/F ([5]; human, plasma, po, 400 mg, Vz/F, Cohort 1B, 400 mg oral Compound 1, Fed, geometric mean): 159 L and 2.3 L/kg
Tmax ([5]; human, plasma, po, 400 mg, median tmax, 400 mg oral Compound 1, fasted conditions): 2.5 h
Tmax ([5]; human, plasma, po, 400 mg, median tmax, 400 mg oral Compound 1, fed conditions): 3.75 h
half-life ([5]; human, plasma, po, 400 mg, t½, Cohort 1B, 400 mg oral Compound 1, Fed, geometric mean): 67.5 h
Vd ([6]; in vivo, 10 mg): 1.53 L/kg
Vd ([6]; in vivo, 50 mg): 188 L
AUC(0-t) ([6]; in vivo, 200 mg): 76000 ng·h/mL
AUC(0-t) ([6]; plasma, 10 mg, AUC(0-24), Cohort 1: Compound 1 10 mg/3 hr IV, single dose, geometric mean [geometric %CV]): 1540 ng·h/mL
AUC(0-t) ([6]; plasma, 10 mg, AUC(0-t), Cohort 1: Compound 1 10 mg/3 hr IV, single dose, geometric mean [geometric %CV]): 2380 ng·h/mL
AUC(0-inf) ([6]; plasma, 10 mg, Cohort 1: Compound 1 10 mg/3 hr IV, single dose, geometric mean [geometric %CV]): 4050 ng·h/mL
Tmax ([6]; plasma, 10 mg, Cohort 1: Compound 1 10 mg/3 hr IV, single dose, median): 3 h
Vd ([6]; plasma, 10 mg, Vz, Cohort 1: Compound 1 10 mg/3 hr IV, single dose, geometric mean [geometric %CV]): 107 L
AUC(0-t) ([6]; plasma, 30 mg, AUC(0-24), Cohort 2: Compound 1 30 mg/3 hr IV, single dose, geometric mean [geometric %CV]): 4320 ng·h/mL
AUC(0-t) ([6]; plasma, 30 mg, AUC(0-t), Cohort 2: Compound 1 30 mg/3 hr IV, single dose, geometric mean [geometric %CV]): 14100 ng·h/mL
AUC(0-inf) [6, 8]: 16600 ng·h/mL
Cmax [6, 8]: 477 ng/mL
Tmax ([6]; plasma, 30 mg, Cohort 2: Compound 1 30 mg/3 hr IV, single dose, median): 3 h
Vd ([6]; plasma, 30 mg, Vz, Cohort 2: Compound 1 30 mg/3 hr IV, single dose, geometric mean [geometric %CV]): 121 L and 1.72 L/kg
AUC(0-t) ([6]; plasma, 50 mg, AUC(0-24), Cohort 7: Compound 1 50 mg/3 hr IV QD × 14 days, Day 1, geometric mean): 6390 ng·h/mL
AUC(0-t) ([6]; plasma, 50 mg, AUC(0-24), Cohort 7: Compound 1 50 mg/3 hr IV QD × 14 days, Day 7, geometric mean): 17600 ng·h/mL
AUC(0-t) ([6]; plasma, 50 mg, AUC(0-24), Cohort 7: Compound 1 50 mg/3 hr IV QD × 14 days, Day 14, geometric mean): 20300 ng·h/mL
Cmax ([6]; plasma, 50 mg, Cohort 7: Compound 1 50 mg/3 hr IV QD × 14 days, Day 1, geometric mean): 669 ng/mL
Cmax ([6]; plasma, 50 mg, Cohort 7: Compound 1 50 mg/3 hr IV QD × 14 days, Day 7, geometric mean): 1090 ng/mL
Cmax ([6]; plasma, 50 mg, Cohort 7: Compound 1 50 mg/3 hr IV QD × 14 days, Day 14, geometric mean): 1180 ng/mL
Tmax ([6]; plasma, 50 mg, Cohort 7: Compound 1 50 mg/3 hr IV QD × 14 days, Day 1, median): 3 h
Tmax ([6]; plasma, 50 mg, Cohort 7: Compound 1 50 mg/3 hr IV QD × 14 days, Day 7, median): 3 h
Tmax ([6]; plasma, 50 mg, Cohort 7: Compound 1 50 mg/3 hr IV QD × 14 days, Day 14, median): 3 h
